From patent US8048892B2, “Azaquinolone based compounds exhibiting prolyl hydroxylase inhibitory activity, compositions, and uses thereof” (Amgen Inc., priority 2006, dated 2011)

Biological target: HIF PHD2 (Homo sapiens, UniProt Q9GZT9)
Experiment: PHD2 inhibition assay (TR-FRET, VCB-Eu detection of hydroxylated P564-HIF1α peptide)
Assay type: biochemical
Settings: 2 nM PHD2, 100 nM P564-HIF1α peptide, 0.25 μM 2-oxoglutarate
Description: Inhibition of HIF PHD2 activity was quantified utilizing the TR-FRET technology. HIF PHD2 catalyzes a hydroxyl modification on the proline residue of the P564-HIF1α peptide substrate (Biotin-DLEMLAPYIPMDDDFQL (SEQ ID NO: 7)) resulting in recognition and binding of the europylated Von Hippel-Lindau protein (pVHL), elongin B and elongin C heterotrimeric (VCB-Eu) complex.
The PHD2 inhibition assay was executed by addition of freshly dissolved FeCl2 to 178.57 μM (100 μM final concentration) in PHD2 Reaction Buffer containing 30 mM MES, pH 6, 10 mM NaCl, 0.25% Brij-35, 0.01% BSA, and 1% DMSO. 28 μL of the iron solution and 2 μL of inhibitor compounds serially diluted in 100% DMSO (5% DMSO final) were added to black polypropylene 96-well microtiter plates. To that, 10 μL of 10 nM PHD2 (2 nM final) was added to all wells of the plate except for the 8 wells of column 12 (LO control), and allowed to incubate at room temperature on the shaker for one hour. Column 6 was the HI control containing PHD2 enzyme and 5% DMSO vehicle, but no inhibitor compound. To initiate the PHD2 enzymatic reaction, 10 μL of a solution containing 500 nM P564-HIF1α peptide (100 nM final), 10 mM ascorbic acid (2 mM final), and 1.25 μM 2-oxoglutarate (α-ketoglutarate; 0.25 μM final) in PHD2 Reaction Buffer was added to all wells of the plate and allowed to incubate on the shaker at room temperature for one hour.
The reaction was terminated by addition of 25 μL TR-FRET Buffer (50 mM TRIS-HCl, pH 9, 100 mM NaCl, 0.05% BSA, and 0.5% Tween-20) containing 150 mM succinate (product inhibitor; 50 mM final), 75 nM streptavidin-APC (25 nM final), and 7.5 nM VCB-Eu (2.5 nM final). The TR-FRET detection reagents were placed on a shaker for 1 hour to reach binding equilibrium before reading on the Discovery platform (PerkinElmer). Europium is excited at 315 nm and phosphoresces at 615 nm with a large Stoke's shift. APC, in turn, emits at 655 nm upon excitation at 615 nm. The TR-FRET signal is measured as the ratio of the APC 655 nm signal divided by the internal europium reference 615 nm emission signal.
The POC (percentage of control) was determined by comparing the signal from hydroxylated peptide substrate in the enzyme reaction containing inhibitor compound with that from PHD2 enzyme with DMSO vehicle alone (HI control), and no enzyme (LO control). POC was calculated using the formula: % control (POC)=(cpd−average LO)/(average HI−average LO)*100. Data (consisting of POC and inhibitor concentration in μM) was fitted to a 4-parameter equation (y=A+((B−A)/(1+((x/C)^D))), where A is the minimum y (POC) value, B is the maximum y (POC), C is the x (cpd concentration) at the point of inflection and D is the slope factor) using a Levenburg-Marquardt non-linear regression algorithm.

HIF PHD2, sequence (Q9GZT9 whole entry): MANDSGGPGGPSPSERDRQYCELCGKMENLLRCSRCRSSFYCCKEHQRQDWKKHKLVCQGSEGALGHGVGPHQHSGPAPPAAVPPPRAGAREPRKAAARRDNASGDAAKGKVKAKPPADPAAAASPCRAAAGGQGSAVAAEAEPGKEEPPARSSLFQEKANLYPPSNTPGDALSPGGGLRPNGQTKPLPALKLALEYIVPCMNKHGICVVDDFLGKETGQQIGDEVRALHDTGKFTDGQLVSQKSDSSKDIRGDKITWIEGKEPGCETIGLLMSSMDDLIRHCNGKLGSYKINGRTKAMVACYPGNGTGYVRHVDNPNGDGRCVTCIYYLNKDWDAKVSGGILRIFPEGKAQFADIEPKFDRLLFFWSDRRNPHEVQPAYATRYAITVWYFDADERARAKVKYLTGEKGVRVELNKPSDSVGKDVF

Row | SMILES | IC50 [nM]
1 | Cn1c(=O)c(C(=O)NCC(=O)O)c(O)c2cc(C3CCCCO3)cnc21 (racemic) [Example 68, (R,S)-2-(4-Hydroxy-1-methyl-2-oxo-6-(tetrahydro-2 H-pyran-2-yl)-1,2-dihydro-1,8-naphthyridine-3-carboxamido)acetic acid] | < 50
2 | Cn1c(=O)c(C(=O)NCC(=O)O)c(O)c2cc(C3CCCO3)c(C(F)(F)F)nc21 (racemic) [Example 99, (R,S) 2-(4-Hydroxy-1-methyl-2-oxo-6-(tetrahydrofuran-2-yl)-7-(trifluoromethyl)-1,2-dihydro-1,8-naphthyridine-3-carboxamido)acetic acid] | < 50
3 | Cn1c(=O)c(C(=O)NCC(=O)O)c(O)c2cc(C3CCOC3)c(C(F)(F)F)nc21 (racemic) [Example 100, (R,S) 2-(4-Hydroxy-1-methyl-2-oxo-6-(tetrahydrofuran-3-yl)-7-(trifluoromethyl)-1,2-dihydro-1,8-naphthyridine-3-carboxamido)acetic acid] | < 50
4 | Cn1c(=O)c(C(=O)NCC(=O)O)c(O)c2cc(C3CCCCO3)cnc21 (single isomer, unassigned) [Example 69, (R)-2-(4-hydroxy-1-methyl-2-oxo-6-(tetrahydro-2 H-pyran-2-yl)-1,2-dihydro-1,8-naphthyridine-3-carboxamido)acetic acid or (S)-2-(4-hydroxy-1-methyl-2-oxo-6-(tetrahydro-2 H-pyran-2-yl)-1,2-dihydro-1,8-naphthyridine-3-carboxamido)acetic acid] | 50 to 100
5 | Cn1c(=O)c(C(=O)NCC(=O)O)c(O)c2cc(C3CCCCO3)cnc21 (single isomer, unassigned) [Example 70, (R)-2-(4-Hydroxy-1-methyl-2-oxo-6-(tetrahydro-2 H-pyran-2-yl)-1,2-dihydro-1,8-naphthyridine-3-carboxamido)acetic acid or (S)-2-(4-Hydroxy-1-methyl-2-oxo-6-(tetrahydro-2 H-pyran-2-yl)-1,2-dihydro-1,8-naphthyridine-3-carboxamido)acetic acid] | 50 to 100
6 | Cn1c(=O)c(C(=O)NCC(=O)O)c(O)c2cc(C3CCCO3)c(C(F)(F)F)nc21 (single isomer, unassigned) [Example 101, (R)-2-(4-Hydroxy-1-methyl-2-oxo-6-(tetrahydrofuran-2-yl)-7-(trifluoromethyl)-1,2-dihydro-1,8-naphthyridine-3-carboxamido)acetic acid or (S)-2-(4-Hydroxy-1-methyl-2-oxo-6-(tetrahydrofuran-2-yl)-7-(trifluoromethyl)-1,2-dihydro-1,8-naphthyridine-3-carboxamido)acetic acid] | < 50
7 | Cn1c(=O)c(C(=O)NCC(=O)O)c(O)c2cc(C3CCCO3)c(C(F)(F)F)nc21 (single isomer, unassigned) [Example 102, (R)-2-(4-Hydroxy-1-methyl-2-oxo-6-(tetrahydrofuran-2-yl)-7-(trifluoromethyl)-1,2-dihydro-1,8-naphthyridine-3-carboxamido)acetic acid or (S)-2-(4-Hydroxy-1-methyl-2-oxo-6-(tetrahydrofuran-2-yl)-7-(trifluoromethyl)-1,2-dihydro-1,8-naphthyridine-3-carboxamido)acetic acid] | 50 to 100
8 | Cn1c(=O)c(C(=O)NCC(=O)O)c(O)c2cc(C3CCOC3)c(C(F)(F)F)nc21 (single isomer, unassigned) [Example 103, (R)-2-(4-Hydroxy-1-methyl-2-oxo-6-(tetrahydrofuran-3-yl)-7-(trifluoromethyl)-1,2-dihydro-1,8-naphthyridine-3-carboxamido)acetic acid or (S)-2-(4-Hydroxy-1-methyl-2-oxo-6-(tetrahydrofuran-3-yl)-7-(trifluoromethyl)-1,2-dihydro-1,8-naphthyridine-3-carboxamido)acetic acid] | < 50
9 | Cn1c(=O)c(C(=O)NCC(=O)O)c(O)c2cc(C3CCOC3)c(C(F)(F)F)nc21 (single isomer, unassigned) [Example 104, (R)-2-(4-Hydroxy-1-methyl-2-oxo-6-(tetrahydrofuran-3-yl)-7-(trifluoromethyl)-1,2-dihydro-1,8-naphthyridine-3-carboxamido)acetic acid or (S)-2-(4-Hydroxy-1-methyl-2-oxo-6-(tetrahydrofuran-3-yl)-7-(trifluoromethyl)-1,2-dihydro-1,8-naphthyridine-3-carboxamido)acetic acid] | 50 to 100
10 | Cn1c(=O)c(C(=O)NCC(=O)O)c(O)c2ncc(Br)cc21 [Example 1, N-((7-Bromo-4-hydroxy-1-methyl-2-oxo-1,2-dihydro-1,5-naphthyridin-3-yl)carbonyl)glycine] | < 50
11 | Cn1c(=O)c(C(=O)NCC(=O)O)c(O)c2ncc(-c3cccs3)cc21 [Example 2, 2-(4-Hydroxy-1-methyl-2-oxo-7-(thiophen-2-yl)-1,2-dihydro-1,5-naphthyridine-3-carboxamido)acetic acid] | < 50
12 | Cn1c(=O)c(C(=O)NCC(=O)O)c(O)c2ncc(-c3ccccc3)cc21 [Example 3, 2-(4-Hydroxy-1-methyl-2-oxo-7-phenyl-1,2-dihydro-1,5-naphthyridine-3-carboxamido)acetic acid] | 50 to 100
13 | Cn1c(=O)c(C(=O)NCC(=O)O)c(O)c2ncc(C3=CCCC3)cc21 [Example 4, 2-(7-Cyclopentenyl-4-hydroxy-1-methyl-2-oxo-1,2-dihydro-1,5-naphthyridine-3-carboxamido)acetic acid] | < 50
14 | Cn1c(=O)c(C(=O)NCC(=O)O)c(O)c2ncc(C3CCCC3)cc21 [Example 5, 2-(7-Cyclopentyl-4-hydroxy-1-methyl-2-oxo-1,2-dihydro-1,5-naphthyridine-3-carboxamido)acetic acid] | < 50
15 | Cn1c(=O)c(C(=O)NCC(=O)O)c(O)c2ncc(C#N)cc21 [Example 6, 2-(7-Cyano-4-hydroxy-1-methyl-2-oxo-1,2-dihydro-1,5-naphthyridine-3-carboxamido)acetic acid] | < 50
16 | C#Cc1cnc2c(O)c(C(=O)NCC(=O)O)c(=O)n(C)c2c1 [Example 7, 2-(7-Ethynyl-4-hydroxy-1-methyl-2-oxo-1,2-dihydro-1,5-naphthyridine-3-carboxamido)acetic acid] | < 50
17 | CC#Cc1cnc2c(O)c(C(=O)NCC(=O)O)c(=O)n(C)c2c1 [Example 8, 2-(4-Hydroxy-1-methyl-2-oxo-7-(prop-1-ynyl)-1,2-dihydro-1,5-naphthyridine-3-carboxamido)acetic acid] | 50 to 100
18 | CC(C)C#Cc1cnc2c(O)c(C(=O)NCC(=O)O)c(=O)n(C)c2c1 [Example 9, 2-(4-Hydroxy-1-methyl-7-(3-methylbut-1-ynyl)-2-oxo-1,2-dihydro-1,5-naphthyridine-3-carboxamido)acetic acid] | < 50
19 | COCC#Cc1cnc2c(O)c(C(=O)NCC(=O)O)c(=O)n(C)c2c1 [Example 10, 2-(4-Hydroxy-7-(3-methoxyprop-1-ynyl)-1-methyl-2-oxo-1,2-dihydro-1,5-naphthyridine-3-carboxamido)acetic acid] | < 50
20 | Cn1c(=O)c(C(=O)NCC(=O)O)c(O)c2ccc(Br)nc21 [Example 11, 2-(7-Bromo-4-hydroxy-1-methyl-2-oxo-1,2-dihydro-1,8-naphthyridine-3-carboxamido)acetic acid] | < 50
21 | Cn1c(=O)c(C(=O)NCC(=O)O)c(O)c2ccc(-c3ccccc3)nc21 [Example 12, 2-(4-Hydroxy-1-methyl-2-oxo-7-phenyl-1,2-dihydro-1,8-naphthyridine-3-carboxamido)acetic acid] | < 50
22 | Cn1c(=O)c(C(=O)NCC(=O)O)c(O)c2ccc(C3=CCCCC3)nc21 [Example 13, 2-(7-Cyclohexenyl-4-hydroxy-1-methyl-2-oxo-1,2-dihydro-1,8-naphthyridine-3-carboxamido)acetic acid] | < 50
23 | Cn1c(=O)c(C(=O)NCC(=O)O)c(O)c2ccc(-c3cccs3)nc21 [Example 14, N-((4-Hydroxy-1-methyl-2-oxo-7-(2-thienyl)-1,2-dihydro-1,8-naphthyridin-3-yl)carbonyl)glycine] | < 50
